# Experimental data: US12616698B2, “Methods for reducing liver fat and for treating fatty liver disorders” (Corcept Therapeutics Incorporated, priority 2021, dated 2026)
# “Also recorded” adds a separate entry of the source.
# Columns and labels:
# [1] = test system: patients presumed to have NASH; assay: Phase 2a study: liver enzymes (ALT, AST), bilirubin, Hy's Law (eDISH plot); format: in vivo, human
# Text: A Phase 2a, randomized, double-blind, placebo-controlled study (ClinicalTrials.gov Identifier: NCT03823703) was begun to assess the efficacy of two dose levels of miricorilant versus placebo in reducing liver fat in patients who were presumed to have non-alcoholic steatohepatitis (NASH), that presumption based on blood tests and noninvasive measures. Written informed consent was obtained before initiating any study-mandated procedures. The full study was planned to enroll approximately 120 patients, randomized 1:1:1 to receive daily 900 mg miricorilant:600 mg miricorilant: matching placebo.
# Other endpoints monitoring and assessment for safety for all study participants. Safety endpoints included the incidence of TEAEs, AEs, and SAEs; changes from Baseline in clinical laboratory tests (hematology and chemistry panels); changes from Baseline in physical examinations and vital sign measurements; changes from Baseline in ECG parameters.
# (§1) Liver enzyme levels were measured in the patients.
# Bilirubin and liver enzyme levels were measured in the patients at baseline. […] Bilirubin and ALT levels that combined are placed in the upper right quadrant of the graph, labelled “Hy's Law Quadrant”, indicate that the patient is at high risk of severe hepatocellular injury. The cholestasis quadrant is the location on the graph where bilirubin levels are greater than twice the ULN for bilirubin. The “Temple's Corollary” quadrant is the location on the graph where peak ALT levels are greater than 3 times the ULN for ALT, but bilirubin levels are less than twice the ULN for bilirubin.
# [2] = test system: patients with presumed NASH; assay: Example 6 study, dosing-regimen cohorts: liver fat content (MRI-PDFF) and markers; format: in vivo, human; conditions: for Mean reduction in LFC: Week 6 (FIG. 10)
# Experimental: (§2) This study was a double-blind, multi-center, placebo-controlled, randomized 3-arm phase 2a study (NCT03823703) conducted to assess the safety and efficacy of miricorilant in reducing liver fat content (LFC) in patients with presumed NASH. Adult patients (18-75 years) with presumed NASH were randomized 1:1:1 to miricorilant 600 mg daily, miricorilant 900 mg daily, or placebo for 12 weeks. […] Abbreviations used in this Example and in the Figures include: ALP, alkaline phosphatase; ALT, alanine aminotransferase; AST, aspartate aminotransferase; ELF, enhanced liver fibrosis; LFC, liver fat content; NASH, non-alcoholic steatohepatitis; ULN, upper limit of normal; AUC, area under the concentration-time curve; Cmax, maximum concentration; EOT, end of treatment; GGT, gamma-glutamyltransferase; INR, international normalized ratio; MRI-PDFF, magnetic resonance imaging-proton density fat fraction; pt, patient; SD, standard deviation; ULN, upper limit of normal; Wk, week.
# (§3) Key inclusion criteria included that the patients be adults between 18-75 years old; be presumed to suffer from NASH with fibrosis; have LFC as measured by MRI-PDFF≥8%; have levels of AST<5×ULN and ALT<5×ULN; and have eGFR>60 mL/min/1.73 m^2. Primary endpoints included relative change in LFC from baseline by MRI-PDFF. Secondary endpoints included change from baseline in AST, ALT, GGT, and change from baseline in ELF score.
# (§4) Patients were divided into different cohorts and received different regimens of miricorilant. The cohorts included patients receiving 30 mg mircorilant once per day; patients receiving 50 mg mircorilant once per day; patients receiving 100 mg mircorilant once per day; patients receiving 150 mg mircorilant once per day; patients receiving 100 mg mircorilant on Mondays, Wednesdays, and Fridays; patients receiving 100 mg mircorilant on Mondays and Fridays; and patients receiving 200 mg mircorilant once per week. Patients receiving 100 mg mircorilant on Mondays and Fridays were termed “Cohort 6”.
# [3] = test system: patients with presumed NASH; assay: Example 6 study: transaminases and safety laboratory values; format: in vivo, human
# Experimental: as §2, §3, §4
# FIG. 13 provides a plot of MRI-PDFF (top line beginning at week 0) and liver enzyme alanine aminotransferase (ALT; bottom line beginning at week 0) for a patient who received miricorilant treatment that included a cessation of miricorilant treatment from week 7 to week 10. […] GGT was elevated at baseline (peak 88 U/L at Wk 10); at other weeks it was below baseline. Eosinophils (%) baseline 7.3, decreased to 2.2 at Wk 2 and increased Wk 3 (peak 4.3), decreased Wk 8 (2.0) and stable until EOT.
# [4] = Example 6 study: pharmacokinetics; conditions: human, in vivo, oral; one patient (FIG. 13)
# [5] = Phase 2a study: body weight and plasma lipids; format: in vivo, human; conditions: patients who responded to miricorilant treatment (FIG. 4)
# Experimental: Measures of the effectiveness of miricorilant versus placebo in reducing liver fat were assessed by magnetic resonance imaging (MRI). The change from baseline MRI measurements relative to MRI measurements taken following a course of daily miricorilant or placebo administration were assessed by magnetic resonance imaging-proton density fat fraction (MRI-PDFF). Additionally, effects of miricorilant may be assessed by measuring one or more of the following, either by comparing change from baseline after one or more days of miricorilant administration, or by comparing measurements in patients administered miricorilant versus patients administered placebo: change in liver fat assessed by MRI-PDFF; change in AST, ALT, and gamma-glutamyl transferase (GGT); change in propeptide of type III collagen (pro-C3); change in enhanced liver fibrosis (ELF) score and its components (hyaluronic acid, tissue inhibitor of metalloproteinases-1 [TIMP-1], type III procollagen [PIIINP]); change in ACTH, serum cortisol, and serum aldosterone (pharmacodynamic assessments); change in Homeostatic Model Assessment of Insulin Resistance (HOMA-IR); change in absolute body weight; and other measurements. […] For patients with diabetes, change in HbA1c and change in fasting blood glucose may be measured to assess the effects of miricorilant. […]
# as §1
# [6] = 100 mg twice weekly, over 12 weeks
smiles,measurement,setting,value
"O=c1[nH]c(=O)c(Cc2cccc(C(F)(F)F)c2)c([C@H]2CC[C@H](c3ccccc3)CC2)[nH]1 [miricorilant, (E)-6-(4-Phenylcyclohexyl)-5-(3-trifluoromethylbenzyl)-1H-pyrimidine-2,4-dione]",Change in ALP or bilirubin levels,[1]; 600 or 900 mg daily,No significant change
same,Hy's Law criteria (total bilirubin >2x ULN and ALT or AST >3x ULN),"[1]; 600 or 900 mg daily, eDISH plot FIG. 5",No patient in this study satisfied the criteria for Hy's Law; also recorded: no patient met Hy's Law criteria
same,Transaminase elevations upon discontinuation of miricorilant,[1]; all patients,resolved rapidly
same,AST Max,"[1]; patient 208-4020, 900 mg, 30 days on treatment, baseline 45",772 U/L
same,ALT Max,"[1]; patient 208-4020, 900 mg, 30 days on treatment, baseline 69",1378 U/L
same,AST Max,"[1]; patient 211-4002, 900 mg, 31 days on treatment, baseline 32",113 U/L
same,ALT Max,"[1]; patient 211-4002, 900 mg, 31 days on treatment, baseline 50",386 U/L
same,AST Max,"[1]; patient 214-4007, 900 mg, 44 days on treatment, baseline 30",376 U/L
same,ALT Max,"[1]; patient 214-4007, 900 mg, 44 days on treatment, baseline 38",848 U/L
same,AST Max,"[1]; patient 233-4018, 600 mg, 34 days on treatment, baseline 26",391 U/L
same,ALT Max,"[1]; patient 233-4018, 600 mg, 34 days on treatment, baseline 41",955 U/L
same,Effect on liver enzymes ALT and AST,"[1]; patients with presumed NASH, 600 or 900 mg daily for 30-44 days",isolated rise; also recorded: increase
same,Lipid levels (LDL and VLDL),"[2]; 100 mg twice per week, Mondays and Fridays (FIG. 16)",reductions
same,Glycemic markers,"[2]; 100 mg twice per week, Mondays and Fridays (FIG. 17)",reductions
same,Fibrosis markers,"[2]; 100 mg twice per week, Mondays and Fridays (FIG. 18)",reductions
same,LFC (MRI-PDFF) and liver enzyme levels (ALT and AST),"[2]; 100 mg twice per week, Mondays and Fridays, twelve weeks (FIG. 15)",reductions
same,Reduction in liver fat,[2]; [6],−30%
same,LFC mean % change from baseline,"[2]; Cohort 6, miricorilant 100 mg twice weekly, week 12",−28.2%
same,LFC mean % change from baseline,"[2]; daily doses of miricorilant 50-150 mg, week 6",−22.3%
same,"Hepatic, lipid, and glycemic markers","[2]; miricorilant treatment, including 100 mg twice weekly",improvements; also recorded: improved
same,Weight loss,[2]; patients whose ALT and/or AST levels remain below 3 times normal,significant
same,Weight loss,[2]; patients whose ALT and/or AST levels rise above 3 times normal,even greater than for the other group
same,Slope of LFC decline,[2]; responders with ALT>3×ULN,−8.76
same,Slope of LFC decline,[2]; responders without ALT>3×ULN,−4.24
same,Mean reduction in LFC,[2]; treatment responders with ALT>3×ULN,−52.6%
same,Mean reduction in LFC,[2]; treatment responders without ALT>3×ULN,−25.5%
same,Hepatic transaminase levels,[3]; [6],without an associated rise
same,Safety and tolerability,[3]; including 100 mg twice weekly,"safe, well tolerated"
same,Eosinophils (%),"[3]; one patient (FIG. 13), Wk 2, baseline 7.3",2.2%
same,Eosinophils (%) peak,"[3]; one patient (FIG. 13), Wk 3",4.3%
same,Eosinophils (%),"[3]; one patient (FIG. 13), Wk 8, stable until EOT",2.0%
same,GGT peak,"[3]; one patient (FIG. 13), Wk 10, elevated at baseline",88 U/L
same,"Total bilirubin, direct bilirubin, ALP, INR","[3]; one patient, treatment ceased from week 7 to week 10 (FIG. 13)",within normal limits
same,"Rise in ALT>3×ULN, intermittent compared to daily dosing","[3]; responders receiving intermittent miricorilant, all cohorts",less likely to have a rise in ALT>3×ULN
same,Transaminase levels,[3]; treatment non-responders (FIG. 10),did not experience a rise
same,AUC,[4],5900 ng·h/mL
same,Cmax,[4],404 ng/mL
same,Changes in body weight,[5],No significant changes
